One experiment concerns the target T1, μ opioid receptor (MOR) (Homo sapiens, UniProt P35372).
T1 construct: expressed in transfected cells
Description: cell-based. It counts as cell-based. Conditions: EC50.
T1 sequence (P35372 whole entry): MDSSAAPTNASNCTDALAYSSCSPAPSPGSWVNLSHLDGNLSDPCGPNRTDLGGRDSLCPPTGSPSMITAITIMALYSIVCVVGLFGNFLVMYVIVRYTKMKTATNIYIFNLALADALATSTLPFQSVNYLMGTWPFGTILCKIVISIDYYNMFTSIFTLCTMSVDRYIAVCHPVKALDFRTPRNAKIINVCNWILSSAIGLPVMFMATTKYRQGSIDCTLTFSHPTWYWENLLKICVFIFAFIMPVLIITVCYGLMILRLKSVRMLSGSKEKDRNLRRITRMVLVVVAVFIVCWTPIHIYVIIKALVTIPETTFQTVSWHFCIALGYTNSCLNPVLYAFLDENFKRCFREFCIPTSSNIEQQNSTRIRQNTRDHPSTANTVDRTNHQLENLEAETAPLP
In general, EC50 refers to the concentration needed to bring the measured effect to its halfway point. Take `COC(=O)[C@@H]1C=C(OC(=O)CCc2ccccc2)C(=O)[C@H]2[C@@]1(C)CC[C@H]1C(=O)O[C@H](c3ccoc3)C[C@]21C` [Table 3 Entry 5, (2S,4aR,6aR,7R,10 aR,10bR)-Methyl 2-(furan-3-yl)-6a,10bdimethyl-4,10-dioxo-9-((3-phenylpropanoyl)oxy)-2,4,4a,5,6,6a,7,10,10a,10b-decahydro-1H-benzo[f]isochromene-7-carboxylate]: the midpoint of the response, the EC50, lay at 500 ± 200 nM.

`COC(=O)[C@@H]1C=C(OC(=O)Cc2ccccc2)C(=O)[C@H]2[C@@]1(C)CC[C@H]1C(=O)O[C@H](c3ccoc3)C[C@]21C` [Table 3 Entry 4, (2S,4aR,6aR,7R,10aR,10bR)-Methyl 2-(furan-3-yl)-6a,10bdimethyl-4,10-dioxo-9-(2-phenylacetoxy)-2,4,4a,5,6,6a,7,10a,10b-decahydro-1Hbenzo[f]isochromene-7-carboxylate] had an EC50 of 130 ± 50 nM.

The compound `COC(=O)[C@@H]1C=C(OC(=O)c2cc3ccccc3s2)C(=O)[C@H]2[C@@]1(C)CC[C@H]1C(=O)O[C@H](c3ccoc3)C[C@]21C` [Table 3 Entry 13] had a concentration for a half-maximal effect (EC50) of 6 ± 1 nM.

As to `COC(=O)[C@@H]1C=C(OC(=O)/C=C/c2ccccc2)C(=O)[C@H]2[C@@]1(C)CC[C@H]1C(=O)O[C@H](c3ccoc3)C[C@]21C` [Table 3 Entry 6, (2S,4aR,6aR,7R,10aR,10bR)-Methyl 9-(cinnamoyloxy)-2-(furan-3-yl)-6a,10b-dimethyl-4,10-dioxo-2,4,4a,5,6,6a,7,10,10a,10b-decahydro-1Hbenzo[f]isochromene-7-carboxylate], the response was half-maximal at 30 ± 10 nM (EC50).

The compound `COC(=O)[C@@H]1C=C(OC(=O)c2cnco2)C(=O)[C@H]2[C@@]1(C)CC[C@H]1C(=O)O[C@H](c3ccoc3)C[C@]21C` [Table 3 Entry 10, (2S,4aR,6aR,7R,10aR,10bR)-2-(Furan-3-yl)-7-(methoxycarbonyl)-6a,10b-dimethyl-4,10-dioxo-2,4,4a,5,6,6a,7,10,10a,10b-decahydro-1H-benzo[f]isochromen-9-yl oxazole-5-carboxylate] returned an EC50 of over 10000 nM.

Still in this experiment, the particulars now being: Series 1 EC50.
Compound `COC(=O)[C@@H]1C[C@H](OC(=O)c2ccc(Cl)cc2)C(=O)[C@H]2[C@@]1(C)CC[C@H]1C(=O)O[C@H](c3ccoc3)C[C@]21C` [Series 1 Entry 7, (2S,4aR,6aR,7R,9S,10aS,10bR)-Methyl 9-((4-chlorobenzoyl)oxy)-2-(furan-3-yl)-6a,10b-dimethyl-4,10-dioxododecahydro-1H-benzo[f]isochromene-7-carboxylate] yielded an EC50 of 700 ± 100 nM.

The compound `COC(=O)[C@@H]1C[C@H](OC(=O)c2ccccn2)C(=O)[C@H]2[C@@]1(C)CC[C@H]1C(=O)O[C@H](c3ccoc3)C[C@]21C` [Series 1 Entry 17, (2S,4aR,6aR,7R,9S,10aS,10bR)-2-(furan-3-yl)-7-(methoxycarbonyl)-6a,10b-dimethyl-4,10-dioxododecahydro-2H-benzo[f]isochromen-9-yl picolinate] registered an EC50 of over 50000 nM.

On to `COC(=O)[C@@H]1C[C@H](OC(=O)c2ccccc2F)C(=O)[C@H]2[C@@]1(C)CC[C@H]1C(=O)O[C@H](c3ccoc3)C[C@]21C` [Series 1 Entry 8, (2S,4aR,6aR,7R,9S,10aS,10bR)-Methyl 9-((2-fluorobenzoyl)oxy)-2-(furan-3-yl)-6a,10b-dimethyl-4,10-dioxododecahydro-1H-benzo[f]isochromene-7-carboxylate], for which the EC50 worked out at 400 ± 100 nM.

Take `COC(=O)[C@@H]1C[C@H](OC(=O)c2ccccc2C)C(=O)[C@H]2[C@@]1(C)CC[C@H]1C(=O)O[C@H](c3ccoc3)C[C@]21C` [Series 1 Entry 11, (2S,4aR,6aR,7R,9S,10aS,10bR)-Methyl 2-(furan-3-yl)-6a,10b-dimethyl-9-((2-methylbenzoyl)oxy)-4,10-dioxododecahydro-1H-benzo[f]isochromene-7-carboxylate]: the EC50 was 1600 ± 400 nM.

The compound `COC(=O)[C@@H]1C[C@H](OC(=O)c2ccccc2OC)C(=O)[C@H]2[C@@]1(C)CC[C@H]1C(=O)O[C@H](c3ccoc3)C[C@]21C` [Series 1 Entry 14] came in with an EC50 of 3300 ± 300 nM.

On to `COC(=O)[C@@H]1C[C@H](OC(=O)c2ccccc2Cl)C(=O)[C@H]2[C@@]1(C)CC[C@H]1C(=O)O[C@H](c3ccoc3)C[C@]21C` [Series 1 Entry 5, (2S,4aR,6aR,7R,9S,10aS,10bR)-Methyl 9-((2-chlorobenzoyl)oxy)-2-(furan-3-yl)-6a,10b-dimethyl-4,10-dioxododecahydro-1H-benzo[f]isochromene-7-carboxylate], for which the EC50 is 3400 ± 200 nM.

In turn, `COC(=O)[C@@H]1C[C@H](OC(=O)c2cccc(OC)c2)C(=O)[C@H]2[C@@]1(C)CC[C@H]1C(=O)O[C@H](c3ccoc3)C[C@]21C` [Series 1 Entry 15] returned an EC50 of 330 ± 20 nM.

As for `COC(=O)[C@@H]1C[C@H](OC(=O)c2cccc(F)c2)C(=O)[C@H]2[C@@]1(C)CC[C@H]1C(=O)O[C@H](c3ccoc3)C[C@]21C` [Series 1 Entry 9, (2S,4aR,6aR,7R,9S,10aS,10bR)-Methyl 9-((3-fluorobenzoyl)oxy)-2-(furan-3-yl)-6a,10b-dimethyl-4,10-dioxododecahydro-1H-benzo[f]isochromene-7-carboxylate], the EC50 came to 460 ± 80 nM.

Still in this experiment, the particulars now being: Series 2 EC50.
In turn, `COC(=O)[C@@H]1C=C(OC(=O)c2ccsc2)C(=O)[C@H]2[C@@]1(C)CC[C@H]1C(=O)O[C@H](c3ccoc3)C[C@]21C` [Series 2 Entry 21, (2S,4aR,6aR,7R,10aR,10bR)-Methyl 2-(furan-3-yl)-6a,10bdimethyl-4,10-dioxo-9-((thiophene-3-carbonyl)oxy)-2,4,4a,5,6,6a,7,10,10a,10b-decahydro-1H-benzo[f]isochromene-7-carboxylate] registered an EC50 of 1.3 ± 0.9 nM.

Consider `COC(=O)[C@@H]1C=C(OC(=O)c2ccccc2OC)C(=O)[C@H]2[C@@]1(C)CC[C@H]1C(=O)O[C@H](c3ccoc3)C[C@]21C` [Series 2 Entry 14, (2S,4aR,6aR,7R,10aR,10bR)-Methyl 2-(furan-3-yl)-9-((2-methoxybenzoyl)oxy)-6a,10b-dimethyl-4,10-dioxo-2,4,4a,5,6,6a,7,10,10a,10b-decahydro-1H-benzo[f]isochromene-7-carboxylate], for which the EC50 came out at 2000 ± 1000 nM.

In turn, `COC(=O)[C@@H]1C=C(OC(=O)c2ccc(Cl)cc2)C(=O)[C@H]2[C@@]1(C)CC[C@H]1C(=O)O[C@H](c3ccoc3)C[C@]21C` [Series 2 Entry 7, (2S,4aR,6aR,7R,10aR,10bR)-Methyl 9-((4-chlorobenzoyl)oxy)-2-(furan-3-yl)-6a,10b-dimethyl-4,10-dioxo-2,4,4a,5,6,6a,7,10,10a,10b-decahydro-1H-benzo[f]isochromene-7-carboxylate] returned an EC50 of 29 ± 8 nM.

In turn, `COC(=O)[C@@H]1C=C(OC(=O)c2cccs2)C(=O)[C@H]2[C@@]1(C)CC[C@H]1C(=O)O[C@H](c3ccoc3)C[C@]21C` [Series 2 Entry 20, (2S,4aR,6aR,7R,6aR,7R,10aR,10bR)-Methyl 2-(furan-3-yl)-6a,10bdimethyl-4,10-dioxo-9-((thiophene-2-carbonyl)oxy)-2,4,4a,5,6,6a,7,10,10a,10b-decahydro-1H-benzo[f]isochromene-7-carboxylate] returned an EC50 of 1.4 ± 0.8 nM.

In turn, `COC(=O)[C@@H]1C=C(OC(=O)c2cccnc2)C(=O)[C@H]2[C@@]1(C)CC[C@H]1C(=O)O[C@H](c3ccoc3)C[C@]21C` [Series 2 Entry 18, (2S,4aR,6aR,7R,10aR,10bR)-2-(Furan-3-yl)-7-(methoxycarbonyl)-6a,10b-dimethyl-4,10-dioxo-2,4,4a,5,6,6a,7,10,10a,10b-decahydro-H-benzo[f]isochromen-9-yl nicotinate] showed an EC50 of 3.3 ± 0.8 nM.

As for `COC(=O)[C@@H]1C=C(OC(=O)c2cccc(F)c2)C(=O)[C@H]2[C@@]1(C)CC[C@H]1C(=O)O[C@H](c3ccoc3)C[C@]21C` [Series 2 Entry 9, (2S,4aR,6aR,7R,10aR,10bR)-Methyl 9-((3-fluorobenzoyl)oxy)-2-(furan-3-yl)-6a,10b-dimethyl-4,10-dioxo-2,4,4a,5,6,6a,7,10,10a,10b-decahydro-1H-benzo[f]isochromene-7-carboxylate], a half-maximal effect (EC50) was put at 15 ± 2 nM.

Compound `COC(=O)[C@@H]1C=C(OC(=O)c2ccccc2[N+](=O)[O-])C(=O)[C@H]2[C@@]1(C)CC[C@H]1C(=O)O[C@H](c3ccoc3)C[C@]21C` [Series 2 Entry 2, (2S,4aR,6aR,7R,10aR,10bR)-Methyl 2-(furan-3-yl)-6a,10b-dimethyl-9-((2-nitrobenzoyl)oxy)-4,10-dioxo-2,4,4a,5,6,6a,7,10,10a-decahydro-1H-benzo[f]isochromene-7-carboxylate] yielded an EC50 of 1900 ± 600 nM.

`COC(=O)[C@@H]1C=C(OC(=O)c2ccncc2)C(=O)[C@H]2[C@@]1(C)CC[C@H]1C(=O)O[C@H](c3ccoc3)C[C@]21C` [Series 2 Entry 19, (2S,4aR,6aR,7R,10aR,10bR)-2-(Furan-3-yl)-7-(methoxycarbonyl)-6a,10b-dimethyl-4,10-dioxo-2,4,4a,5,6,6a,7,10,10a,10bdecahydro-1H-benzo[f]isochromen-9-yl isonicotinate] yielded an EC50 of 6 ± 1 nM.

For `COC(=O)[C@@H]1C=C(OC(=O)c2ccccn2)C(=O)[C@H]2[C@@]1(C)CC[C@H]1C(=O)O[C@H](c3ccoc3)C[C@]21C` [Series 2 Entry 17, (2S,4aR,6aR,7R,10aR,10bR)-2-(Furan-3-yl)-7-(methoxycarbonyl)-6a,10b-dimethyl-4,10-dioxo-2,4,4a,5,6,6a,7,10,10bdecahydro-1H-benzo[f]isochromen-9-yl picolinate], a half-maximal response (EC50) required 410 ± 50 nM.

The experiment is the same for the next values; noted with them: read-out: Series 2 EC50.
Regarding `COC(=O)[C@@H]1C=C(OC(=O)c2ccc(C)cc2)C(=O)[C@H]2[C@@]1(C)CC[C@H]1C(=O)O[C@H](c3ccoc3)C[C@]21C` [Series 2 Entry 13, (2S,4aR,6aR,7R,10aR,10bR)-Methyl 2-(furan-3-yl)-6a,10b-dimethyl-9-((4-methylbenzoyl)oxy)-4,10-dioxo-2,4,4a,5,6a,7,10,10a,10b-decahydro-1H-benzo[f]isochromene-7-carboxylate], the EC50 came out at 21.8 ± 0.3 nM.
